This is an account of results in patent US20260363245A1, “HETEROCYCLIC COMPOUND AND HARMFUL ARTHROPOD CONTROL COMPOSITION CONTAINING SAME” (SUMITOMO CHEMICAL COMPANY, LIMITED, priority 2022, published 2026).

What all share (type): in vivo
Data set [1] deals with cotton worm (Spodoptera litura). Briefly: Test Method 3: cotton worm, sprayed cabbage seedling, second-instar larvae. As to conditions: 500 ppm, spray 20 mL/seedling, 5 days. The protocol: (§1) Each test compound is made to a formulation according to a similar method to that described in the Formulation Example 1, and thereto is added water containing 0.03 v/v % of Shindain (registered trademark) to prepare a diluted solution containing a prescribed concentration of the test compound.
(§2) Cabbage (Brassicae oleracea) seedling (on the developmental stage of the second to third true leaf) is planted in a container, and the diluted solutions are sprayed to the seedling at a ratio of 20 mL/seedling. Thereafter, the aerial part of the seedling is cut out and then is installed into a container in which a filter paper is placed at the bottom of the container. Five of second-instar larvae of cotton worm (Spodoptera litura) are released into the container. After 5 days, the number of the surviving insects is counted, and the mortality of insects is calculated by the following equation.
(§3) Mortality(%)=(1−Number of surviving insects/5)×100

Data set [2] concerns diamondback moth (Plutella xylostella). Kind of data set: Test Method 4: diamondback moth, sprayed cabbage seedling, second-instar larvae. The following applies: 500 ppm, spray 20 mL/seedling, 5 days. On the procedure: as §1
as §2, with “diamondback moth (Plutella xylostella)” for “cotton worm (Spodoptera litura)”
as §3

In data set [3] the test system is Western corn rootworm (Diabrotica virgifera virgifera). Briefly: Test Method 5: Western corn rootworm, immersed corn seedling. As to conditions: 200 ppm; corn seedling immersed 30 seconds; second-instar larvae; 5 days. The protocol:
Each 1 mg of the test compounds is dissolved in 50 μL of a mixed solution consisting of 5% of polyoxyethylene sorbitan mono-cocoate and 95% of acetone by volume ratio. Thereto is added water containing 0.03% by volume of Shindain (registered trademark) to prepare a diluted solution containing a prescribed concentration of the test compound.
A young seedling of corn (Zea mays) is immersed into the diluted solution for 30 seconds. Thereafter, two seedlings are installed in a plastic petri dish ([…]), and 10 of second-instar larvae of Western corn rootworm (Diabrotica virgifera virgifera) are released into the dish. After 5 days, the number of the dead insects is counted, and the mortality of insects is calculated by the following equation.
Mortality(%)=(Number of dead insects/10)×100

Data set [4] has as its system housefly (Musca domestica). Briefly: Test Method 8: housefly female adults, coated glass vial. The following applies: 40 mg/m^2 coated vial, 1 day. On the procedure: An acetone solution which is adjusted to 800 ppm of each test compound is poured into a 20 mL glass vial, and the test compound is coated uniformly on inner face of the vial so as to 40 mg/m^2 of the test compound treated, and the vial is then dried.
5 housefly (Musca domestica) female adults are released into the treated vial, and the vial is then covered with lid. After the prescribed time, the state of the housefly is examined, and the mortality is calculated by the following equation.
(§4) Mortality(%)=(Number of dead insects/Number of tested insects)×100

Data set [5] concerns cotton aphids (Aphis gossypii). Kind of data set: Test Method 11: cotton aphid, foliar spray on cucumber seedling (Formulation Example 5). As to conditions: 200 ppm; foliar spray 10 mL/seedling; 5 days after spraying. On the procedure:
Each test compound is made to a formulation according to a similar method to that described in the Formulation Example 5, and thereto is added water containing 0.03 v/v % of Shindain (registered trademark) to prepare a diluted solution containing a prescribed concentration of the test compound.
(§5) Cucumber (Cucumis sativus) seedling (on the developmental stage of the second true leaf) is planted in a container and approximately 30 cotton aphids (Aphis gossypii) (all developmental stages of life) are released onto the leaves of the cucumber. After 1 day, the diluted solutions are sprayed to the seedling at a ratio of 10 mL/seedling. Further, after 5 days, the number of the surviving insects is examined and the controlling value is calculated by the following equation.
Controlling value (%)={1−(Cb×Tai)/(Cai×)}×100
wherein the symbols in the formula represent the following descriptions. • Cb: Number of the test insects in untreated group; • Cai: Number of the surviving insects at the time of the investigation in untreated group; • Tb: Number of the test insects in treated group; • Tai: Number of the surviving insects at the time of the investigation in treated group; • Here the “untreated group” represents a group where the similar treatment procedure to that of the treated group except not using the test compound is done.

Data set [6] deals with common house mosquito (Culex pipiens pallens). Briefly: Test Method 12: common house mosquito larvae in diluted solution. As to conditions: 3.5 ppm; last instar larvae; 1 day. On the procedure:
Each test compound is formulated to a test formulation according to a similar method to that described in the Formulation Example 1, and water is added in preparing for a diluted solution containing a prescribed concentration of the test compound.
Into the diluted solution, 30 last instar larvae of common house mosquito (Culex pipiens pallens) are released, and after 1 day, the state of the house mosquito larvae is examined, and the mortality is calculated by the following equation.
as §4

Data set [7] concerns cotton aphids (Aphis gossypii). Kind of data set: Test Method 1: cotton aphid, foliar spray on cucumber seedling (Formulation Example 1). As to conditions: 500 ppm; foliar spray 10 mL/seedling; 5 days after spraying. The protocol:
as §1, §5
Controlling value(%)={1−(Cb×Tai)/(Cai×Tb)}×100
wherein the symbols in the formula represent the following descriptions. • Cb: Number of the test insects in untreated group; • Cai: Number of the surviving insects at the time of the investigation in untreated group; • Tb: Number of the test insects in treated group; • Tai: Number of the surviving insects at the time of the investigation in treated group;
Here the “untreated group” represents a group where the similar treatment procedure to that of the treated group except not using the test compound is done.

In the case of `CCS(=O)(=O)c1c(N2CCn3nc(OC(F)F)cc3C2=O)nc2ccc(I)cn12` [compound 3], the mortality – broadly, the percentage killed – in data set [1] was ≥ 80%; in data set [2] it was ≥ 80%; in data set [3], ≥ 80%; in data set [4], ≥ 80%; in data set [6], “greater than 90%”. Moreover, the controlling value in data set [5] was ≥ 90%.
`CCS(=O)(=O)c1cc(C2CC2)cnc1N1CCn2nc(OC(F)F)cc2C1=O` [compound 6]: the controlling value in data set [7] and in data set [5] was ≥ 90% in each case. Moreover, the mortality in data set [1] is given as ≥ 80%; in data set [2], ≥ 80%; in data set [3] it was ≥ 80%; in data set [6] it was “greater than 90%”.
On to `CCS(=O)(=O)c1cc(Br)cnc1N1CCn2nc(C(F)(F)F)cc2C1=O` [compound 7], for which the controlling value in data set [7] and in data set [5] was ≥ 90% throughout. Further, the mortality in data set [3] was ≥ 80%; in data set [6], “greater than 90%”.
Turning to `CCS(=O)(=O)c1cc(Br)cnc1N1CCn2nc(OC(F)F)cc2C1=O` [compound 8], the controlling value in data set [7] and in data set [5] was ≥ 90% each time. The mortality in data set [2] is given as ≥ 80%.
For `CCS(=O)(=O)c1cc(-c2ccc(F)cc2)cnc1N1CCn2nc(C(F)(F)F)cc2C1=O` [compound 9], the controlling value in data set [7] and in data set [5] was ≥ 90% each time. Further, the mortality in data set [1], in data set [2] and in data set [3] was ≥ 80% throughout.
For the compound `CCS(=O)(=O)c1cc(-c2ccc(Cl)cc2)cnc1N1CCn2nc(C(F)(F)F)cc2C1=O` [compound 11], the controlling value in data set [7] and in data set [5] was ≥ 90% each time. The mortality in data set [1], in data set [2], in data set [3] and in data set [4] was ≥ 80% in each case.
Consider `CCS(=O)(=O)c1cc(-c2cc(Cl)cc(Cl)c2)cnc1N1CCn2nc(C(F)(F)F)cc2C1=O` [compound 13], for which the controlling value in data set [7] was ≥ 90%. Moreover, the mortality was ≥ 80% in data set [1], ≥ 80% in data set [2] and “greater than 90%” in data set [6].
`CCS(=O)(=O)c1cc(-c2ccc(Cl)cc2)cnc1N1CCn2nc(OC(F)F)cc2C1=O` [compound 16]: in data set [5], the controlling value is reported as ≥ 90%.
Consider `CCS(=O)(=O)c1cc(-c2ccc(F)cc2)cnc1N1CCn2nc(OC(F)F)cc2C1=O` [compound 19], for which the controlling value in data set [7] and in data set [5] was ≥ 90% each time. In addition, the results for the mortality in data set [1] and in data set [6] were ≥ 80% and “greater than 90%”, respectively.
On to `CCS(=O)(=O)c1cc(-c2cccc(C#N)n2)cnc1N1CCn2nc(C(F)(F)F)cc2C1=O` [compound 23], for which the controlling value in data set [7] is ≥ 90%. In data set [6], the mortality result is listed as “greater than 90%”.
As for `CCS(=O)(=O)c1cc(-c2cc(Cl)ccn2)cnc1N1CCn2nc(C(F)(F)F)cc2C1=O` [compound 27], the results for the mortality in data set [2] and in data set [6] were ≥ 80% and “greater than 90%”, respectively.
With `CCS(=O)(=O)c1c(N2CCn3nc(Br)cc3C2=O)nc2ccc(I)cn12` [compound 46], the controlling value in data set [5] is ≥ 90%.
